From patent US10918644B2, “Chemotherapeutic drug composition” (YEDITEPE UNIVERSITESI, priority 2017, dated 2021)
Where “and” joins values, the source holds several entries; their conditions need not be identical. Identical values can stand only once. Entries after “also recorded” stand apart in the source; their conditions may differ.

What was measured:
[1] = tested on: HEK293 cells; test: WST-1 cell viability assay on healthy kidney cells (toxicity); type: cell-based, human
Method: (§1) The WST-1 assay was performed to determine cell viability. The working principle of this assay is based on the conversion of the stable tetrazolium salt WST-1 into soluble formazan by viable cells. During conversion of WST-1 to formazan, a color change that is measurable at 450 and 630 nm wavelengths occurs in the cell medium. In other words, the amount of formazan dye is proportional to the number of metabolically active (viable) cells. The color change was evaluated by measuring the absorbance in the ELISA device and the obtained values were analyzed using the Graph Pad Prism 7 database.
Human embryonic kidney (HEK293) cells were used as a cell model to test whether Everolimus and ABT-737 had any toxic effects on healthy kidney cells. HEK293 cells were treated with the drug composition (1 μM for Everolimus and 5 μM for ABT-737) for 3 days and the toxicity response was determined by measuring cell viability by WST-1 assay for 3 days.

[2] = tested on: Caki-1 cells; test: WST-1 cell viability assay, Caki-1 cells; type: cell-based
Method: as §1
(§2) To determine the toxic effect of Everolimus and ABT-737 on cell viability, primary A-498 and metastatic Caki-1 RCC cell lines that are resistant to drug Everolimus were used in this study and the toxic effect was determined by using the WST-1 method.
(§3) Everolimus and ABT-737 drugs were administered to A-498 and Caki-1 cells, which were seeded in 96-well culture plates, for three days to determine the appropriate dose for the combination. The effect of the drugs prepared at three different concentrations (1, 5, or 10 μM) on cell viability was determined using the WST-1 method. […] The amount of drug composition for Caki-1 (10,000 cells/well) metastatic cells was determined as 1 μM Everolimus and 10 μM ABT-737. […]

[3] = tested on: Caki-1 cells; test: Annexin-V cell death detection assay, Caki-1 cells; type: cell-based; conditions: 1 μM Everolimus and 10 μM ABT-737, or ABT-737 monotherapy; 24, 48 and 72 hours
[4] = mouse, in vivo
Excerpt: At the end of the experiment, the organs including thymus, heart, stomach, intestine, kidney, spleen, testis, lung, liver, and brain were taken from the animals in each group and were sent for pathological examination. […] At the same time, the metastatic focus in these tissues was also examined.

[5] = tested on: Everolimus-resistant RenCa (erRenCa) cells; test: In vivo tumor model with erRenCa cells injected into the dorsal area; design: species or system Balb/c mice; conditions: for animals with tumor formation: 2 mg/kg Everolimus and/or 75 mg/kg ABT-737 intraperitoneally every other day from day 4, 11 injections, eight animals per group
Method: Everolimus stock solution was prepared by dissolving 10 mg lyophilized Everolimus in 1.043 ml DMSO (Dimethyl sulfoxide) (9.6 mg/ml) and ABT-737 stock solution was prepared by dissolving 10 mg ABT-737 in 1.229 ml DMSO (8.14 mg/ml). Stock concentration of both drugs was 10 mM. For in vitro conditions, dilutions were made in cell culture medium at concentrations ranging from 1-5 μM from Everolimus stock concentration. For in vivo conditions, the drug Everolimus that will be injected to animals was prepared by diluting the stock concentration in PBS (Phosphate-buffered saline) to a concentration of 2 mg/kg. For in vitro conditions, dilutions were made in cell culture medium at concentrations ranging from 1-10 μM from ABT-737 stock concentration. For in vivo conditions, the drug ABT-737 that will be injected to animals was prepared by diluting the stock concentration in PBS (Phosphate-buffered saline) to a concentration of 75 mg/kg. Prior to injection, the volume of the injected drug is adjusted to 200 μl by addition of PBS (Phosphate-buffered saline). The drugs were injected into the animals separately one minute apart without being mixed.
(§4) The process of tumor development was monitored.
These erRenCa kidney cancer cells were used as a cancer cell line to form a kidney cancer tumor model in animals. For this purpose, cells were subcutaneously injected into the dorsal area of Balb/c mice. […] The experiment was terminated at the end of 11 injections. […] In order to develop resistance to Everolimus, erRenCa cells inactivated their mTOR pathway and began to use the Bcl-2 pathway for their survival. Therefore, cancer cells could only undergo cell death after blocking the anti-apoptotic Bcl-2 survival pathway with the drug ABT-737.

[6] = tested on: RenCa cells; test: WST-1 cell viability assay, RenCa cells; type: cell-based, murine; conditions: Everolimus 1, 5 and 10 μM, after 48 hours of treatment
Method: as §1, §4

[7] = tested on: A-498 cells; test: WST-1 cell viability assay, A-498 cells; type: cell-based; conditions: Everolimus monotherapy, 1, 5 or 10 μM, three days
Method: as §1, §2, §3

[8] = tested on: Everolimus-resistant RenCa (erRenCa) cells; test: WST-1 cell viability assay, Everolimus-resistant RenCa cells; type: cell-based, murine; conditions: Everolimus 1, 5 and 10 μM, at the end of three days
Method: as §1
RenCa cells were made resistant to Everolimus for the use in in vivo experiments. In this regard, RenCa cells were seeded in 96-well culture plates. After 24 hours, the cells were treated with 1 μM Everolimus for 72 hours. At the end of 72 hours, the cells were washed with PBS (Phosphate-buffered saline) and treated with 10 μM Everolimus for an additional 72 hours. Cells that developed resistance to Everolimus were transferred to 6-well culture plates and were grown in an Everolimus-free medium. Cells reaching a density of 90% were transferred to T-75 culture plates and were grown for 2 months in a medium containing 1 μM Everolimus.
as §4

[9] = tested on: mTOR pathway in Caki-1 cells; test: Western Blotting of mTOR pathway proteins, Caki-1 cells; type: cell-based; conditions: 1 μM Everolimus alone or with 10 μM ABT-737, 24 hours
Method: (§5) A-498 and Caki-1 RCC cells were used to investigate the molecular effect of the Everolimus and ABT-737 drug composition on the mTOR pathway. A-498 cells and Caki-1 cells seeded in 6-well plates were treated for 24 hours with 1 μM Everolimus and 5 μM ABT-737 and 1 μM Everolimus and 10 μM ABT-737, respectively. At the end of 24 hours, proteins were isolated from the cells. These proteins were then used to determine the expression of proteins that play a key role in the mTOR pathway by performing the Western Blotting technique.

[10] = cited from earlier work; for prolonged progression-free survival: treatment of metastatic RCC
[11] = tested on: mTOR pathway in A-498 cells; test: Western Blotting of mTOR pathway proteins, A-498 cells; type: cell-based; conditions: 1 μM Everolimus alone or with 5 μM ABT-737, 24 hours
Method: as §5

[12] = ABT-737 group, 75 mg/kg intraperitoneally every other day
[13] = Everolimus group, 2 mg/kg intraperitoneally every other day, 2 mg/kg

For `CN(C)CC[C@H](CSc1ccccc1)Nc1ccc(S(=O)(=O)NC(=O)c2ccc(N3CCN(Cc4ccccc4-c4ccc(Cl)cc4)CC3)cc2)cc1[N+](=O)[O-]` [ABT-737], the “decrease in the cell viability of healthy kidney cells” value ([1]; 5 μM ABT-737, third day of the treatment) was “did not cause any decrease”, the “decrease in cell viability” value ([2]; ABT-737 monotherapy, after 72 hours) was 80% and the “apoptosis mediated cell death (Annexin-V)” value [3] was “more significant increase in the cell death compared to the combination”. The “toxic effects on the animals (pathological examination of the tissues)” value [4] was “did not show any toxic effects”, the “animals with tumor formation” value [5] was “three of the eight” and the “Grade (WHO/ISUP, per animal H1-H8)” value [5, 12] was 4. For the same molecule, the “Necrosis (per animal H1-H8)” value [5, 12] was “No” and the “Tumor (pathological examination, per animal H1-H8)” value ([5]; ABT-737 group, 75 mg/kg intraperitoneally every other day, 75 mg/kg) was “No tumor; also recorded: Renal cell carcinoma”.
With `CO[C@H]1C[C@@H]2CC[C@@H](C)[C@@](O)(O2)C(=O)C(=O)N2CCCC[C@H]2C(=O)O[C@H]([C@H](C)C[C@@H]2CC[C@@H](OCCO)[C@H](OC)C2)CC(=O)[C@H](C)/C=C(\C)[C@@H](O)[C@@H](OC)C(=O)[C@H](C)C[C@H](C)/C=C/C=C/C=C/1C` [Everolimus] the “effect on cell viability” value [6] was “caused toxic effects”, the “cytotoxic effect on healthy kidney cells” value ([1]; 1 μM Everolimus, 24 and 48 hours) was “did not show any cytotoxic effect” and the “decrease in the cell viability compared to untreated control cells” value ([1]; 1 μM Everolimus, 72 hour-treatment) was 50%. The “response of cell viability to Everolimus (toxicology results)” value ([2]; Everolimus monotherapy, 1, 5 or 10 μM, three days) was “resistant”, the “response of cell viability to Everolimus (toxicology results)” value [7] was “resistant” and the “change in cell viability” value [8] was “did not cause any change”. For the same molecule, the “S6 protein phosphorylated at serine 240/244 (S6-S240/244P)” value [9] was “decrease”, the “basal p70S6K protein expression” value ([9]; vs control cells) was “decreased” and the “p70S6K protein phosphorylated at threonine 389 (p70S6K-T389P)” value ([9]; vs control cells) was “decrease”. For the same molecule, the “autophosphorylation of the mTOR kinase at serine 2448 (mTOR-S2448P)” value ([9]; vs untreated control cells) was “diminished”, the “toxic effects on the animals (pathological examination of the tissues)” value [4] was “did not show any toxic effects” and the increase of survival ([10]; advanced stage RCC, Phase III clinical trials, after failure of VEGF therapy) was “about 4.9 months”. For the same molecule, the prolonged progression-free survival [10] was “up to 4.9 months”, the “animals with tumor formation” value [5] was “four of the eight” and the “Grade (WHO/ISUP, per animal H1-H8)” value [5, 13] was 4 (3×) and 2. The “Necrosis (per animal H1-H8)” value [5, 13] was “No (7×) and Yes”, the “Tumor (pathological examination, per animal H1-H8)” value [5, 13] was “Renal cell carcinoma; also recorded: No tumor” and the “S6 protein phosphorylated at serine 240/244 (S6-S240/244P)” value [11] was “decrease”. The “basal p70S6K protein expression” value ([11]; vs control cells) was “decreased”, the “p70S6K protein phosphorylated at threonine 389 (p70S6K-T389P)” value ([11]; vs control cells) was “decrease” and the “autophosphorylation of the mTOR kinase at serine 2448 (mTOR-S2448P)” value ([11]; vs untreated control cells) was “diminished”.
In the case of `CNC(=O)c1cc(Oc2ccc(NC(=O)Nc3ccc(Cl)c(C(F)(F)F)c3)cc2)ccn1` [Sorafenib], the prolonged progression-free survival [10] is given as “up to 5.9 months”.
For `CO[C@H]1C[C@@H]2CC[C@@H](C)[C@@](O)(O2)C(=O)C(=O)N2CCCC[C@H]2C(=O)O[C@H]([C@H](C)C[C@@H]2CC[C@@H](OC(=O)C(C)(CO)CO)[C@H](OC)C2)CC(=O)[C@H](C)/C=C(\C)[C@@H](O)[C@@H](OC)C(=O)[C@H](C)C[C@H](C)/C=C/C=C/C=C/1C` [Temsirolimus], the prolonged progression-free survival [10] is listed as “up to 3.8 months”.
